Results on one substance are retold here after patent US8383597B2, “G proteins in tumor growth and angiogenesis” (Cornell Research Foundation, Inc., priority 2006, dated 2013).

Data set [1] relates to mouse Gα13. The experiment in a line: Western blot of Gα13 protein level in SVEC4-10 endothelial cells after RNA interference. Format: cell-based. The settings on record: SVEC4-10 cells, Western blot (FIG. 9A). The protocol:
(§1) RNA Interference: RNA interference was performed with Qiagen's 2-For-Silencing siRNA Duplexes. Cells were plated in 6-well plates the day before transfection. 2.5 μg siRNA were diluted in 100 μL buffer EC-R (Qiagen). 7.5 μL RNAiFect transfection reagent (Qiagen) were added to form complexes. After incubation for 15 minutes at room temperature, the complexes were added to the cells. Two days later, the cells were again transfected with the same amount of siRNA. Cells were assayed after three more days' incubation. The sequences for Gα13 siRNA oligonucleotides were r(GUA CGA CUU UGA AAU UAA A)dTdT (SEQ ID NO: 6) for the sense strand and r(UUU AAU UUC AAA GUC GUA C)dTdC (SEQ ID NO: 7) for the antisense strand. The sequences for the second pair of oligonucleotides used in the interference assay (data not shown) were r(GGG UGA GUC UGU AAA GUA U)dTdT (SEQ ID NO: 8) for the sense strand and r(AUA CUU UAC AGA CUC ACC C)dAdG (SEQ ID NO: 9) for the antisense strand. The control siRNA oligonucleotides were supplied by Qiagen.
Background: A western blot detects proteins with antibodies after separation by electrophoresis.

Data set [2] deals with MEF cells. Briefly: Wound healing assay, siRNA-treated MEF cells. Format: cell-based, mouse. The note with it: PDGF stimulation (FIG. 3E). The protocol: Wound Healing Assay: Wild type and Gα12^−/−Gα13^−/− MEF cells isolated from E8.0 Gα12^−/−Gα13^−/− embryos (Gu et al., Proc Natl Acad Sci USA 99: 9352-9357 (2002)) in Dulbecco's Modified Eagle Medium (DMEM) (Invitrogen) containing 10% FBS were seeded into wells of 24-multiwell plates (Becton-Dickinson) (Shan et al., Proc Natl Acad Sci USA 102: 3772-3776 (2005); Yang and Huang, J Biol Chem 280: 27130-27137 (2005)). After they grew to confluency, wounds were made with sterile pipet tips. Cells were washed with Phosphate Buffered Saline (PBS) and refreshed with medium containing 10% fetal bovine serum (FBS) or 20 ng/mL platelet-derived growth factor (PDGF-BB). After overnight incubation at 37° C., cells were fixed and photographed. MEF cells were transfected with Lipofectamine-2000 (transfection efficiency was 10 to 30%) (Invitrogen).
(§2) RNA Interference: RNA interference was performed with Qiagen's 2-For-Silencing siRNA Duplexes. Cells were plated in 6-well plates the day before transfection. 2.5 μg siRNA were diluted in 100 μL buffer EC-R (Qiagen). 7.5 μL RNAiFect transfection reagent (Qiagen) were added to form complexes. After incubation for 15 minutes at room temperature, the complexes were added to the cells. Two days later, the cells were again transfected with the same amount of siRNA. Cells were assayed after three more days' incubation. […]

Data set [3] has as its system Gα12. Briefly: Western blot of Gα12 protein level in SVEC4-10 endothelial cells after RNA interference. Format: cell-based, mouse. The settings on record: SVEC4-10 cells, Western blot (FIG. 9A). The protocol:
as §1

The test system of data set [4] is tubulin. Briefly: Western blot of tubulin protein level in MEF cells after RNA interference. Format: cell-based, mouse. The settings on record: siRNA transfected MEF cells, Western blot (FIG. 3C). The protocol:
as §1

The test system of data set [5] is mouse endothelial SVEC4-10 cells. The experiment in a line: Chamber assay of VEGF-induced migration of SVEC4-10 endothelial cells. Format: cell-based. The note with it: chamber assay (FIG. 9B). The protocol:
Chamber Cell Migration Assay: Cell migration was assayed in Boyden chambers [8.0 μm pore size polyethylene terephthalate membrane, FALCON cell culture insert (Becton-Dickinson)] (Shan et al., Proc Natl Acad Sci USA 102: 3772-3776 (2005); Yang and Huang, J Biol Chem 280: 27130-27137 (2005)). Cells were first trypsinized and counted. […] Transwells were incubated for 4-6 hours at 37° C. Cells on the inside of the transwell inserts were removed with a cotton swab, and cells on the underside of the insert were fixed and stained. Photographs of three random fields were taken, and the number of cells counted to determine the average number of cells that had transmigrated.
as §1, with “The sequences for the second pair of oligonucleotides used in the interference assay (data not shown) were r(GGG UGA GUC UGU AAA GUA U)dTdT (SEQ ID NO: 8) for the sense strand and r(AUA CUU UAC AGA CUC ACC C)dAdG (SEQ ID NO: 9) for the antisense strand. The control siRNA oligonucleotides were supplied by Qiagen.” left out

Data set [6] has as its system mouse Gα13. Briefly: Western blot of Gα13 protein level in MEF cells after RNA interference. Format: cell-based. The note with it: wild-type MEF cells, siRNA transfection, Western blot (FIG. 3C). The protocol:
as §1

Data set [7] has as its system MEF cells. Briefly: Chamber cell migration assay, siRNA-treated MEF cells. Format: cell-based, mouse. The protocol: Chamber Cell Migration Assay: Cell migration was assayed in Boyden chambers [8.0 μm pore size polyethylene terephthalate membrane, FALCON cell culture insert (Becton-Dickinson)] (Shan et al., Proc Natl Acad Sci USA 102: 3772-3776 (2005); Yang and Huang, J Biol Chem 280: 27130-27137 (2005)). Cells were first trypsinized and counted. Then 5-10×10^4 cells in serum free medium (300 μL) were added to the upper chamber, and 500 μL of appropriate medium with 10% FBS or 20 ng/mL PDGF were added to the lower chamber. Transwells were incubated for 4-6 hours at 37° C. Cells on the inside of the transwell inserts were removed with a cotton swab, and cells on the underside of the insert were fixed and stained. Photographs of three random fields were taken, and the number of cells counted to determine the average number of cells that had transmigrated.
as §2

Data set [8] deals with Gα12. Briefly: Western blot of Gα12 protein level in MEF cells after RNA interference. The settings on record: siRNA transfected MEF cells, Western blot (FIG. 3C). Format: cell-based, mouse. The protocol: as §1
Data set [9] has as its system tubulin. Briefly: Western blot of tubulin protein level in SVEC4-10 endothelial cells after RNA interference. Format: cell-based, mouse. The settings on record: SVEC4-10 cells, Western blot (FIG. 9A). The protocol:
as §1

Entries after “also recorded” stand apart in the source; their conditions may differ. d = 2'-deoxy (DNA); r = 2'-OH (RNA)

For “r(GUA CGA CUU UGA AAU UAA A)dTdT (sense GUACGACUUUGAAAUUAAATT; antisense UUUAAUUUCAAAGUCGUACTC; siRNA; sugars from the 5' end r19 d2, backbone not given here) [Gα13 siRNA, siRNA duplex against mouse Gα13]”, the “endogenous mouse Gα13 protein level” value with mouse Gα13 [1] is listed as “reduced”. The “cell migratory response to PDGF stimulation, wound-healing assay” value in the data set with MEF cells [2] is “defective cell migratory response; also recorded: reduced”. The “protein level of Gα12” value with Gα12 [3] is reported as “no effect”; in the data set on Gα12 [8], “not changed”. Further, the figures for the “protein level of tubulin” value in the data set on tubulin [4] and in the data set with tubulin [9] were “not changed” and “no effect”, respectively. In [5], the “VEGF-induced endothelial cell migration” value is “reduced”. For the same substance, the “level of endogenous mouse Gα13 protein” value in the data set on mouse Gα13 [6] is recorded as “significantly reduced”. Also, the “cell migratory response to PDGF stimulation, chamber assay” value in the data set on MEF cells [7] (PDGF stimulation (FIG. 3D)) was “defective cell migratory response”. In the data set with MEF cells [7] (without PDGF (or other stimuli), data not shown), the “migration of cells without PDGF, compared with control RNAi” value is listed as “not significantly different”.
